Measured values taken from patent publication US6329498A, “Polypeptide transition metal salts and method of enhancing anti-HIV activity of polypeptide” (Seikagaku Corporation, priority 1996, dated 2001).
Where a SMILES comes first, the peptide text is derived from it.

Assays:
[1] = tested on: human immunodeficiency virus (HIV); assay: Anti-HIV activity: protection of HIV-infected MT-4 cells from cell death, MTT method; details: for SI (CC50 /ED50): rough ratio of CC50 to EC50, MT-4 cells
Procedure: To a 96-well microtiter plate, HIV-infected MT-4 cells (2.5×10^4 cells/well, Multiplicity of infection (MOI): 0.001) was added immediately after the infection along with test materials in various concentrations. […] On the other hand, in order to know the cytotoxicity of the test substances on the MT-4 cells, virus-non-infected cells were cultured with the test materials in various concentrations as described above. […] And the rough ratio of CC50 to EC50 (CC50 /EC50) is expressed as an effective ratio (SI).

MT-4 cells = assay: Cytotoxicity on virus-non-infected MT-4 cells, MTT method; type: cell-based; details: 5 days at 37° C.
[2] = HIV-infected MT-4 cells, MOI 0.001, 5 days at 37° C., MTT method

Compound	EC50 (concentration to suppress 50% of cell death due to HIV infection) [1, 2] [µg/mL]	CC50 (50% cytotoxic concentration) (MT-4 cells) [µg/mL]	SI (CC50 /ED50) [1]	EC50 ([1]; read-out: EC50 (concentration to suppress 50% of cell death due to HIV infection), HIV-infected MT-4 cells, MOI 0.001, 5 days at 37° C., MTT method, unit μM printed with the compound) [µM]	CC50 (50% cytotoxic concentration) (MT-4 cells; unit μM printed with the compound) [µM]
N=C(N)NCCC[C@H](NC(=O)[C@@H]1CSSC[C@H](NC(=O)[C@H](Cc2c[nH]c3ccccc23)NC(=O)[C@H](CCCNC(=N)N)NC(=O)[C@@H](N)CCCNC(=N)N)C(=O)N[C@@H](Cc2ccc(O)cc2)C(=O)N[C@@H](CCCNC(=N)N)C(=O)N[C@@H](CCCCN)C(=O)N[C@H]2CSSC[C@H](NC(=O)[C@H](Cc3ccc(O)cc3)NC(=O)CNC(=O)[C@H](CCCCN)NC(=O)[C@H](Cc3ccc(O)cc3)NC2=O)C(=O)N[C@@H](Cc2ccc(O)cc2)C(=O)N[C@@H](CCCNC(=N)N)C(=O)N[C@@H](CCCCN)C(=O)N1)C(N)=O [Polypeptide (1)] (HELM PEPTIDE1{R.R.W.C.Y.R.K.C.Y.K.G.Y.C.Y.R.K.C.R.[am]}$PEPTIDE1,PEPTIDE1,4:R3-17:R3|PEPTIDE1,PEPTIDE1,8:R3-13:R3$$$V2.0; bridges inferred)	0.0047	41.53	–	–	–
N=C(N)NCCC[C@H](NC(=O)[C@H](CS)NC(=O)[C@H](CCCCN)NC(=O)[C@H](CCCNC(=N)N)NC(=O)[C@H](Cc1ccc(O)cc1)NC(=O)[C@@H]1CCCN1C(=O)[C@@H](CCCCN)NC(=O)[C@H](CCCCN)NC(=O)[C@H](CCCNC(=N)N)NC(=O)[C@H](Cc1ccc(O)cc1)NC(=O)[C@H](CS)NC(=O)[C@H](Cc1c[nH]c2ccccc12)NC(=O)[C@H](CCCNC(=N)N)NC(=O)[C@@H](N)CCCNC(=N)N)C(N)=O [Reduced form of] (HELM PEPTIDE1{R.R.W.C.Y.R.K.[dK].P.Y.R.K.C.R.[am]}$$$$V2.0)	0.040	41.17	–	–	–
Dextran sulfate [reference compound]	0.68	–	–	–	–
N=C(N)NCCC[C@H](NC(=O)[C@H](CS)NC(=O)[C@H](CCCCN)NC(=O)[C@H](CCCNC(=N)N)NC(=O)[C@H](Cc1ccc(O)cc1)NC(=O)[C@H](CS)NC(=O)[C@H](Cc1ccc(O)cc1)NC(=O)CNC(=O)[C@H](CCCCN)NC(=O)[C@H](Cc1ccc(O)cc1)NC(=O)[C@H](CS)NC(=O)[C@H](CCCCN)NC(=O)[C@H](CCCNC(=N)N)NC(=O)[C@H](Cc1ccc(O)cc1)NC(=O)[C@H](CS)NC(=O)[C@H](Cc1c[nH]c2ccccc12)NC(=O)[C@H](CCCNC(=N)N)NC(=O)[C@@H](N)CCCNC(=N)N)C(N)=O [Reduced form of polypeptide (1)] (H-RRWCYRKCYKGYCYRKCR-NH2)	0.0052	41.27	–	–	–
N=C(N)NCCC[C@H](NC(=O)[C@@H]1CSSC[C@H](NC(=O)[C@H](Cc2c[nH]c3ccccc23)NC(=O)[C@H](CCCNC(=N)N)NC(=O)[C@@H](N)CCCNC(=N)N)C(=O)N[C@@H](Cc2ccc(O)cc2)C(=O)N[C@@H](CCCNC(=N)N)C(=O)N[C@@H](CCCCN)C(=O)N[C@H](CCCCN)C(=O)N2CCC[C@H]2C(=O)N[C@@H](Cc2ccc(O)cc2)C(=O)N[C@@H](CCCNC(=N)N)C(=O)N[C@@H](CCCCN)C(=O)N1)C(N)=O [Polypeptide (2), Arg-Arg-Trp-Cys-Tyr-Arg-Lys----------DLys-Pro-----------Tyr-Arg-Lys-Cys-Arg-NH2] (HELM PEPTIDE1{R.R.W.C.Y.R.K.[dK].P.Y.R.K.C.R.[am]}$PEPTIDE1,PEPTIDE1,4:R3-13:R3$$$V2.0)	0.029	44.60	1565	–	–
Cc1cn([C@H]2C[C@H](N=[N+]=[N-])[C@@H](CO)O2)c(=O)[nH]c1=O [AZT, reference compound]	–	–	1716	0.0011	1.93
